Measured values as given in US8124617B2, “Imidazopyridine compounds” (Takeda San Diego, Inc., priority 2005, dated 2012).

Target: T1, glucokinase (residues 12-465 of the human enzyme) (Homo sapiens, UniProt P35557)
T1 construct: FLAG (vector pFLAG-CTC) (C); made in house; host or cells: E. coli DH10b-T1r (pFLAG-CTC)
T1 sequence (P35557 12-465): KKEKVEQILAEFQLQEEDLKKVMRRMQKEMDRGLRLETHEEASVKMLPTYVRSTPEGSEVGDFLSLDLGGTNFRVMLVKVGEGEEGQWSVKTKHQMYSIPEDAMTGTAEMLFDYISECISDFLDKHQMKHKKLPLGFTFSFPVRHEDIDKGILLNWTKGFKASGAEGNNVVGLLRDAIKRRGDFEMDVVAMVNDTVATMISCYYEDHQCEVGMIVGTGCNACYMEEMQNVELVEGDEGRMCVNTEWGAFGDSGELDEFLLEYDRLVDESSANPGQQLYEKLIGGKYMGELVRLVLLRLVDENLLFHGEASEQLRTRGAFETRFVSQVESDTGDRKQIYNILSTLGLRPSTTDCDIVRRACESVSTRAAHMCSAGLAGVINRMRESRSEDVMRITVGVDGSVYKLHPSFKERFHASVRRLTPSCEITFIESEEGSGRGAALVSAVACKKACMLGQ
Experiment: Measurement of GK activation value (ATP/glucose, luciferase luminescence)
Assay type: biochemical
Settings: values given as ranges; for EC50: Kact = concentration that displays 50% of the maximal increase in GK activity, room temperature, 60 min, read-out: pKact; for Emax: calculated maximal gain in GK enzyme activity at a saturating concentration of the compound, read-out: % ACTmaxc
From the text: Purified glucokinase may be obtained as follows. DNA encoding residues 12-465 of the full-length sequence of the human enzyme may be amplified by PCR and cloned into the HindIII and EcoRI sites of pFLAG-CTC (Sigma). SEQ ID No. 5 corresponds to residues 12-465 of glucokinase.
The expression of recombinant glucokinase protein may be carried out by transformation and growth of DH10b-T1r E. coli cells incorporating the (pFLAG-CTC) plasmid in LB media. Protein expression can be induced in this system by the addition of IPTG to the culture medium.
Recombinant protein may be isolated from cellular extracts by passage over Sepharose Q Fast Flow resin (Pharmacia). This partially purified GK extract may then be further purified by a second passage over Poros HQ10 (Applied Biosystems). The purity of GK may be determined on denaturing SDS-PAGE gel. Purified GK may then be concentrated to a final concentration of 20.0 mg/ml. After flash freezing in liquid nitrogen, the proteins can be stored at −78° C. in a buffer containing 25 mM TRIS-HCl pH 7.6, 50 mM NaCl, and 0.5 mM TCEP.
The assay reaction may be initiated as follows: 4 μl of substrate mixture (12.5 μM ATP and 12.5 mM Glucose) was added to each well of the plate, followed by the addition of 2 μl of activator (2 fold serial dilutions for 11 data points for each activator) containing 10% DMSO. 4 μL of 1.25 nM GK solution may be added to initiate the reaction. The reaction mixture may then be incubated at room temperature for 60 min, and quenched and developed by addition of 10 μL of luciferase reagent. Luminescence intensities of the resulting reaction mixtures may be measured after a 10 min incubation at room temperature. The luminescence intensity may be measured by using the Analyst HT from LJL Biosystems.
pKact and % ACTmax values may be calculated by non-linear curve fitting of the compound concentrations and luminescence intensities to a standard inhibition/activation equation.

EC50 [nM]	Emax [%]	SMILES
398 to 1000	20 to 29.9	CC(C)Oc1ccc(OCc2ccccc2)cc1-c1nc2cc(-c3cccc(F)c3)cnc2[nH]1 [Example 71, 2-[5-(benzyloxy)-2-isopropoxyphenyl]-6-(3-fluorophenyl)-3H-imidazo[4,5-b]pyridine]
126 to 316	20 to 29.9	CC(C)Oc1cc(OCc2ccccc2)cc(-c2nc3cccnc3[nH]2)c1 [Example 158, 2-(3-(benzyloxy)-5-isopropoxyphenyl)-3H-imidazo[4,5-b]pyridine]
398 to 1000	30 to 49.9	COc1ccc(/C=C/c2ccncc2)cc1-c1nc2cccnc2[nH]1 [Example 246, (E)-2-(2-methoxy-5-(2-(pyridin-4-yl)vinyl)phenyl)-3H-imidazo[4,5-b]pyridine]
126 to 316	30 to 49.9	COc1ccc(OCc2ccccc2)cc1-c1nc2cc(Br)cnc2[nH]1 [Example 243, 2-(5-(benzyloxy)-2-methoxyphenyl)-6-bromo-3H-imidazo[4,5-b]pyridine]
398 to 1000	20 to 29.9	CC(C)Oc1cc(OCCCc2ccccc2)cc(-c2nc3cccnc3[nH]2)c1 [Example 159, 2-(3-isopropoxy-5-(3-phenylpropoxy)phenyl)-3H-imidazo[4,5-b]pyridine]
398 to 1000	> 70	CC(C)Oc1ccc(/C=C/c2ccccc2)cc1-c1nc2cccnc2[nH]1 [Example 196, (E)-2-(2-isopropoxy-5-styrylphenyl)-3H-imidazo[4,5-b]pyridine]
< 100	> 70	Cn1ccnc1COc1cc(OCc2ccccc2F)cc(-c2nc3cc(Br)cnc3[nH]2)c1 [Example 167, 6-bromo-2-(3-(2-fluorobenzyloxy)-5-((1-methyl-1H-imidazol-2-yl)methoxy)phenyl)-3H-imidazo[4,5-b]pyridine]
126 to 316	50 to 69.9	Cn1ccnc1COc1cc(OCCc2ccsc2)cc(-c2nc3cc(Br)cnc3[nH]2)c1 [Example 164, 6-bromo-2-(3-((1-methyl-1H-imidazol-2-yl)methoxy)-5-(2-(thiophen-3-yl)ethoxy)phenyl)-3H-imidazo[4,5-b]pyridine]
398 to 1000	20 to 29.9	COC[C@H](C)Oc1cc(OCc2ccccc2F)cc(-c2nc3cc(CCCO)cnc3[nH]2)c1 [Example 177, (S)-3-(2-(3-(2-fluorobenzyloxy)-5-(1-methoxypropan-2-yloxy)phenyl)-3H-imidazo[4,5-b]pyridin-6-yl)propan-1-ol]
398 to 1000	30 to 49.9	Cn1ccnc1CNc1cc(NS(C)(=O)=O)cc(-c2nc3cc(Br)cnc3[nH]2)c1 [Example 214, N-(3-(6-bromo-3H-imidazo[4,5-b]pyridin-2-yl)-5-((1-methyl-1H-imidazol-2-yl)methylamino)phenyl)methanesulfonamide]
126 to 316	> 70	Cn1ccnc1COc1cc(OCc2ccccc2)cc(-c2nc3cccnc3[nH]2)c1 [Example 162, 2-(3-(benzyloxy)-5-((1-methyl-1H-imidazol-2-yl)methoxy)phenyl)-3H-imidazo[4,5-b]pyridine]
< 100	> 70	Cn1ccnc1COc1cc(OCc2ccccc2F)cc(-c2nc3cc(Cl)cnc3[nH]2)c1 [Example 166, 6-chloro-2-(3-(2-fluorobenzyloxy)-5-((1-methyl-1H-imidazol-2-yl)methoxy)phenyl)-3H-imidazo[4,5-b]pyridine]
126 to 316	30 to 49.9	Cn1ccnc1CNc1cc(NS(=O)(=O)c2ccccc2)cc(-c2nc3cc(Br)cnc3[nH]2)c1 [Example 213, N-(3-(6-bromo-3H-imidazo[4,5-b]pyridin-2-yl)-5-((1-methyl-1H-imidazol-2-yl)methylamino)phenyl)benzenesulfonamide]
398 to 1000	50 to 69.9	COC[C@@H](C)Oc1cc(OCc2ccccc2F)cc(-c2nc3cccnc3[nH]2)c1 [Example 172, (R)-2-(3-(2-fluorobenzyloxy)-5-(1-methoxypropan-2-yloxy)phenyl)-3H-imidazo[4,5-b]pyridine]
126 to 316	50 to 69.9	COC[C@@H](C)Oc1cc(OCc2ccccc2F)cc(-c2nc3cc(Cl)cnc3[nH]2)c1 [Example 173, (R)-6-chloro-2-(3-(2-fluorobenzyloxy)-5-(1-methoxypropan-2-yloxy)phenyl)-3H-imidazo[4,5-b]pyridine]
398 to 1000	> 70	COC[C@H](C)Oc1cc(Oc2ccc(S(C)(=O)=O)cc2)cc(-c2nc3cccnc3[nH]2)c1 [Example 181, (S)-2-(3-(1-methoxypropan-2-yloxy)-5-(4-(methylsulfonyl)phenoxy)phenyl)-3H-imidazo[4,5-b]pyridine]
126 to 316	> 70	Cn1ccnc1COc1cc(OCc2ccccc2F)cc(-c2nc3cc(CCCO)cnc3[nH]2)c1 [Example 168, 3-(2-(3-(2-fluorobenzyloxy)-5-((1-methyl-1H-imidazol-2-yl)methoxy)phenyl)-3H-imidazo[4,5-]pyridin-6-yl)propan-1-ol]
< 100	> 70	Cn1ccnc1COc1cc(OCc2ccccc2F)cc(-c2nc3cccnc3[nH]2)c1 [Example 165, 2-(3-(2-fluorobenzyloxy)-5-((1-methyl-1H-imidazol-2yl)methoxy)phenyl)-3H-imidazo[4,5-b]pyridine]
< 100	30 to 49.9	CC(C)Oc1cc(OCCc2ccccc2)cc(-c2nc3cccnc3[nH]2)c1 [Example 161, 2-(3-isopropoxy-5-phenethoxyphenyl)-3H-imidazo[4,5-b]pyridine]
126 to 316	30 to 49.9	COC[C@@H](C)Oc1cc(OCc2ccccc2F)cc(-c2nc3cc(Br)cnc3[nH]2)c1 [Example 174, (R)-6-bromo-2-(3-(2-fluorobenzyloxy)-5-(1-methoxypropan-2-yloxy)phenyl)-3H-imidazo[4,5-b]pyridine]
398 to 1000	> 70	Fc1ccccc1COc1cc(Oc2ncccn2)cc(-c2nc3cc(Br)cnc3[nH]2)c1 [Example 245, 6-bromo-2-(3-(2-fluorobenzyloxy)-5-(pyrimidin-2-yloxy)phenyl)-3H-imidazo[4,5-b]pyridine]
398 to 1000	20 to 29.9	Brc1cnc2[nH]c(-c3ccccc3Oc3cccnc3)nc2c1 [Example 244, 6-bromo-2-(2-(pyridin-3-yloxy)phenyl)-3H-imidazo[4,5-b]pyridine]
< 100	50 to 69.9	Cn1ccnc1COc1cc(OCc2ccccc2)cc(-c2nc3cc(Br)cnc3[nH]2)c1 [Example 163, 2-(3-(benzyloxy)-5-((1-methyl-1H-imidazol-2-yl)methoxy)phenyl)-6-bromo-3H-imidazo[4,5-b]pyridine]

SMILES	EC50 [nM]	Emax [%]
Brc1cnc2[nH]c(-c3ccccc3Oc3ccccc3)nc2c1 [Example 188, 6-bromo-2-(2-phenoxyphenyl)-3H-imidazo[4,5-b]pyridine]	398 to 1000	30 to 49.9
